Measured values reported in US10487087B2, “Positive allosteric modulators of the GLP-1 receptor” (Vanderbilt University, priority 2015, dated 2019).

Target: human GLP-1R (Homo sapiens (Human), UniProt P43220)
Test: GLP-1 assay with GLP1 endogenous agonist (calcium mobilization, EC20 GLP-1 peptide 7-36 amide)
Assay type: cell-based
Details: calcium flux; for EC50: potentiation of EC20 GLP-1 7-36 amide; for Emax at 30 µM: 30 μM compound, EC20 of GLP-1 7-36 amide
Excerpt: A. GLP-1 Assay with GLP1 Endogenous Agonist
To assess the effects of test compounds on GLP-1 or glucagon potency and efficacy, a high-throughput calcium mobilization assay was used essentially as previously described (Morris L C, Days E L, Turney M, Mi D, Lindsley C W, Weaver C D, Niswender K D, A Duplexed High-Throughput Screen to Identify Allosteric Modulators of the Glucagon-Like Peptide 1 and Glucagon Receptors. J. Biomol. Screen. 2014 Feb. 13, 19(6):847-858). Briefly, human GLP-1R or Glucagon Receptor 9-3-H cells over-expressing a promiscuous G-protein (Millipore, Billerica, Mass.) were plated at 15,000 cells/well in black-walled 384-well plates (Greiner Bio-one, Monroe, N.C.) in Dulbecco's Modified Eagles Medium (DMEM) with 10% FCS, 4.0 mM L-glutamine, non-essential amino acids (NEAAs), and 10.0 mM HEPES without antibiotics. After overnight attachment, cells were washed twice with assay buffer (HBSS supplemented with 20 mM HEPES and 1.0 mM probenecid) using an ELx405CW cell washer (Bio-Tek, Winooski, Vt.) and then loaded with the calcium sensitive dye fluo-4 AM (Invitrogen, Grand Island, N.Y.) at a final concentration of 2.0 μM in assay buffer. After a 45-minute incubation at room temperature, the dye was removed by washing, leaving 20 μL of assay buffer. Next, the cell plate was introduced alongside a 384-well compound plate containing 0.1% final DMSO control wells and 11-point concentration response curves of putative GLP-1 PAMs created using a non-pipet based liquid transfer instrument, ECH0555 (Labcyte, Sunnyvale, Calif.). After a 20 μL compound addition to the appropriate wells, kinetic fluorescent measurements were collected for 2 minutes using an FDSS6000 (Hamamatsu, Bridgewater, N.J.) with 488 nm excitation and 480/540 emission filters. After 2 minutes, 10 μL of an EC20 concentration of GLP-1 peptide 7-36 amide (Phoenix Pharmaceuticals, Burlingame, Calif.), Glucagon (Phoenix Pharmaceuticals, Burlingame, Calif.) Exendin-4 (Tocris Bioscience, Bristol, UK), or Liraglutide (Victoza™, Novo-Nordisk, Denmark) was added and fluorescence was monitored for an additional 2 minutes to observe potentiation of the calcium flux signal. […] Recombinant peptides were reconstituted into assay buffer supplemented with 0.1% fatty acid free BSA (Sigma #A6003) and diluted into borosilicate glass tubes to maximize peptide recovery (Goebel-Stengel M, Stengel A, Tache Y, Reeve J R Jr., The importance of using the optimal plasticware and glassware in studies involving peptides. Anal. Biochem. 2011 Jul. 1, 414(1):38-46).
Data is from a single experiment unless otherwise noted. Data that is an average of two experiments is noted as “n=2” while data that is an average of three or more experiments is presented as the average plus or minus the standard error of the mean.

Sequence of human GLP-1R (P43220 24-463): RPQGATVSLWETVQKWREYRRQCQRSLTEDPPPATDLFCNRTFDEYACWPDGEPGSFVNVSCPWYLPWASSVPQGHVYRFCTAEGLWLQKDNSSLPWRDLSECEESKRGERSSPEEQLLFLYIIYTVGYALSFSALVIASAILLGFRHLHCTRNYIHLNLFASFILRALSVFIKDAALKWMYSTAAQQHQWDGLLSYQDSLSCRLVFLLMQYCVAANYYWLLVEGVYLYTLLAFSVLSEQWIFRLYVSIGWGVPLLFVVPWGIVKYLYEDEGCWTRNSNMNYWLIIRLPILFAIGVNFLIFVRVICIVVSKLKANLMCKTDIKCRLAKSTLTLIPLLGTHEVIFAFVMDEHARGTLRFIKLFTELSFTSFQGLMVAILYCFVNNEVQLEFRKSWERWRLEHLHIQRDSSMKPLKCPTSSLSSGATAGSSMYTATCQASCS

Q: For `Cc1c2ccccc2n2c(CO)cn(C3CCCC3)c(=O)c12` [Compound 23, 2-cyclopentyl-4-(hydroxymethyl)-10-methylpyrazino[1,2-a]indol-1(2H)-one], which EC50 is on record?
A: > 30 µM

Q: With `Cc1c2ccccc2n2c(C(=O)O)cn(C3CCCC3)c(=O)c12` [Compound I, 2-Cyclopentyl-10-methyl-1-oxo-1,2-dihydropyrazino[1,2-a]indole-4-carboxylic acid] as the compound, how does the EC50 read?
A: > 30 µM

Q: `CC(C)N1CCC[C@H]1CNC(=O)c1cn(C2CCCC2)c(=O)c2c(C#N)c3ccccc3n12` [Compound 16, (S)-10-cyano-2-cyclopentyl-N-((1-isopropylpyrrolidin-2-yl)methyl)-1-oxo-1,2-dihydropyrazino[1,2-a]indole-4-carboxamide] was tested. Which Emax at 30 µM did it give?
A: 43%

Q: And the EC50?
A: 1.9 µM

Q: Which Emax at 30 µM does the source give for `Cc1c2ccccc2n2c(C(=O)NC[C@@H]3CCCN3C(C)C)cn(-c3cccnc3)c(=O)c12` [Compound 20, (S)-N-((1-isopropylpyrrolidin-2-yl)methyl)-10-methyl-1-oxo-2-(pyridin-3-yl)-1,2-dihydropyrazino[1,2-a]indole-4-carboxamide] here?
A: 36%

Q: And the EC50?
A: 5.2 µM

Q: What does the source list for `Cc1c2ccccc2n2c(C(=O)NC[C@@H]3CCCN3C(C)C)cn(-c3ccccc3)c(=O)c12` [Compound 14, (S)-N-((1-isopropylpyrrolidin-2-yl)methyl)-10-methyl-1-oxo-2-phenyl-1,2-dihydropyrazino[1,2-a]indole-4-carboxamide]?
A: Emax at 30 µM: 45%; EC50: 13 µM

Q: Which EC50 does the source give for `Cc1c2ccccc2n2c(C(=O)NCC3CCN3)cn(C3CCCC3)c(=O)c12` (stereo not drawn) [Compound 22, N-(azetidin-2-ylmethyl)-2-cyclopentyl-10-methyl-1-oxo-1,2-dihydropyrazino[1,2-a]indole-4-carboxamide] here?
A: > 30 µM

Q: `Cc1c2ccccc2n2c(C(=O)NC[C@H]3CCCN3C(C)C)cn(-c3cccnc3)c(=O)c12` [Compound 21, (R)-N-((1-isopropylpyrrolidin-2-yl)methyl)-10-methyl-1-oxo-2-(pyridin-3-yl)-1,2-dihydropyrazino[1,2-a]indole-4-carboxamide] was tested. Which EC50 did it give?
A: > 30 µM

Q: For `Cc1c2ccccc2n2c(C(=O)NC[C@H]3CCCN3C(C)C)cn(-c3cnn(C)c3)c(=O)c12` [Compound 19, (R)-N-((1-isopropylpyrrolidin-2-yl)methyl)-10-methyl-2-(1-methyl-1H-pyrazol-4-yl)-1-oxo-1,2-dihydropyrazino[1,2-a]indole-4-carboxamide], which EC50 is on record?
A: > 30 µM

Q: `C=Cc1c2ccccc2n2c(C(=O)NC[C@@H]3CCCN3C(C)C)cn(C3CCCC3)c(=O)c12` [Compound 17, (S)-2-cyclopentyl-N-((1-isopropylpyrrolidin-2-yl)methyl)-1-oxo-10-vinyl-1,2-dihydro-pyrazino[1,2-a]indole-4-carboxamide] was tested. Which Emax at 30 µM did it give?
A: 37%

Q: What about the EC50 of the same compound?
A: 9.6 µM

Q: How did the EC50 turn out when `Cc1c2ccccc2n2c(C(=O)NC[C@H]3CCCN3C(C)C)cn(-c3ccccc3)c(=O)c12` [Compound 15, (R)-N-((1-isopropylpyrrolidin-2-yl)methyl)-10-methyl-1-oxo-2-phenyl-1,2-dihydropyrazino[1,2-a]indole-4-carboxamide] was run?
A: > 30 µM

Q: `Cc1c2ccccc2n2c(C(=O)NCC3CCN3C(C)C)cn(C3CCCC3)c(=O)c12` (stereo not drawn) [Compound 24, 2-cyclopentyl-N-((1-isopropylazetidin-2-yl)methyl)-10-methyl-1-oxo-1,2-dihydropyrazino[1,2-a]indole-4-carboxamide] was tested. Which Emax at 30 µM did it give?
A: 51%

Q: And the EC50?
A: 12 µM

Q: How did the Emax at 30 µM turn out when `Cc1c2ccccc2n2c(C(=O)NC[C@@H]3CCCN3C(C)C)cn(-c3cnn(C)c3)c(=O)c12` [Compound 18, (S)-N-((1-isopropylpyrrolidin-2-yl)methyl)-10-methyl-2-(1-methyl-1H-pyrazol-4-yl)-1-oxo-1,2-dihydropyrazino[1,2-a]indole-4-carboxamide] was run?
A: 34%

Q: What about the EC50 of the same compound?
A: 6.7 µM
